Experimental data as given in article PMC4610306 (Journal of Medicinal Chemistry, 2015).
Entries after “also recorded” stand apart in the source; their conditions may differ.

Experiments:
[1] = molecular target: PAD2 (Homo sapiens, UniProt Q9Y2J8); assay: Inactivation kinetics; format: biochemical
[2] = system: U2OS cells; assay: Cell viability, colorimetric XTT assay; format: cell-based, human
[3] = system: mouse neutrophils; assay: NET formation, PMA-stimulated neutrophils, DNA/neutrophil elastase overlap assay; format: cell-based; conditions: Cl-amidine as reference
[4] = Murine hepatic microsome stability assay; format: in vitro ADME, mouse

Sequence of PAD2 (Q9Y2J8 whole entry): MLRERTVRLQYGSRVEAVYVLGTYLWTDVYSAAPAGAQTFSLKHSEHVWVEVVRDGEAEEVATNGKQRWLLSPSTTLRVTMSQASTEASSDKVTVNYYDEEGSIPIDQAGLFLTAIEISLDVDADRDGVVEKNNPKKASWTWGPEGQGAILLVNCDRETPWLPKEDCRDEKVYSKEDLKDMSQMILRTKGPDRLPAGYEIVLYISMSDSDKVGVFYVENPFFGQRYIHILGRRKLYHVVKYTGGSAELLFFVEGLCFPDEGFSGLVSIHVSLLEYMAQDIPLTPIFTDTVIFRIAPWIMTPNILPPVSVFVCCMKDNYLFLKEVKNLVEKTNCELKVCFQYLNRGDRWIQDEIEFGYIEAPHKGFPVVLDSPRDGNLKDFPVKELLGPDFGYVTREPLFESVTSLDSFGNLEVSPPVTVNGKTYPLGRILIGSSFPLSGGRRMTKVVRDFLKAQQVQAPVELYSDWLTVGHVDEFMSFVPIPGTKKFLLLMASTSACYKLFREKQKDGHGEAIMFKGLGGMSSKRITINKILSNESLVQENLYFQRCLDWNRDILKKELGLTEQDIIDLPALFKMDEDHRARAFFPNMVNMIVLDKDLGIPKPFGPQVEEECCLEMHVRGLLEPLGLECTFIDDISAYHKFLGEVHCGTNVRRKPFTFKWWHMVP

| kinact/KI [1] [M⁻¹ s⁻¹] | EC50 improvement over parent compound Cl-amidine [2] [fold] | Compound | inhibition of NET formation [3] | other results |
| --- | --- | --- | --- | --- |
| 108 | – | CC(C)(C)n1nnc([C@H](CCCNC(=N)CF)NC(=O)c2ccccc2)n1 [Compound 7, tetrazole tert-butyl-F-amidine] | – | – |
| 6.33 | – | N=C(CF)NCCC[C@H](NC(=O)c1ccccc1)C(N)=O [F-amidine, reference compound] | – | – |

More lines, now with the values behind:

| Compound | kinact/KI [1] [M⁻¹ s⁻¹] | EC50 improvement over parent compound Cl-amidine [2] [fold] | inhibition of NET formation [3] | other results |
| --- | --- | --- | --- | --- |
| CC(C)(C)n1nnc([C@H](CCCNC(=N)CCl)NC(=O)c2ccccc2)n1 [Compound 6, tetrazole tert-butyl Cl-amidine] | 125 | – | – | – |
| CC(C)(C)n1nnc([C@H](CCCNC(=N)CF)NC(=O)c2ccc(-c3ccccc3)cc2)n1 [Compound 14, biphenyl tetrazole tert-butyl-F-amidine] | – | 3.5 | – | – |
| CC(C)(C)n1nnc([C@H](CCCNC(=N)CCl)NC(=O)c2ccc(-c3ccccc3)cc2)n1 [Compound 13, biphenyl tetrazole tert-butyl Cl-amidine] | – | 16 | significantly more potent than Cl-amidine; also recorded: significantly reduces NET formation compared to Cl-amidine | effect on cell growth / cell viability ([2]; 20 μM, 72 h, XTT): completely abolished cell growth; also recorded: completely abolishes the growth |
| CC(C)(C)n1nnc([C@H](CCCNC(=N)CCl)NC(=O)c2ccccc2C(=O)O)n1 [Compound 21, o-carboxyl tetrazole tert-butyl Cl-amidine] | – | – | inhibits NET formation only at very high concentrations; also recorded: inhibits NET formation at higher doses | stability / half-life in mouse hepatic microsomes [4]: half-life mimics those obtained for the fluoro analogs |
